Reference: patent publication US20220089646A1 (THE UNIVERSITY OF QUEENSLAND, priority 2019, published 2022)
Entries after “also recorded” stand apart in the source; their conditions may differ. *1 amine or outer side, *2 acyl side, *3 side chain or, on linkers, in order; H or OH if unused. Where a SMILES comes first, the peptide text is derived from it. Bridges are numbered along the chain shown (N, C = ends). [ ]: non-standard residue; d: D form. ξ: configuration not given here. Phe(4-NO2) = N[C@@H](Cc1ccc([N+](=O)[O-])cc1)C(=O)O; Phe(4-Cl) = N[C@@H](Cc1ccc(Cl)cc1)C(=O)O; NHCH2CMe2S = CC(C)(CN[*:1])S[*:2]; NMeR = CN[C@@H](CCCNC(=N)N)C(=O)O; X1 = CC(C)(CN[*:2])S[*:1]; ξC = NC(CS)C(=O)O; Sar = CNCC(=O)O

Legend:
[1] = tested on: trypsin; assay: stock trypsin solution (1 mg trypsin in 50 mL of 0.1 M NH4HCO3 buffer); settings: 37° C., up to 24 hours
[2] = target: KOP (Homo sapiens, UniProt P41145); assay: In vitro cAMP activity at KOP (Table 10); type: cell-based; settings: cAMP inhibition, four-parameter regression, normalised to U50488H
Sequence of KOP (P41145 whole entry): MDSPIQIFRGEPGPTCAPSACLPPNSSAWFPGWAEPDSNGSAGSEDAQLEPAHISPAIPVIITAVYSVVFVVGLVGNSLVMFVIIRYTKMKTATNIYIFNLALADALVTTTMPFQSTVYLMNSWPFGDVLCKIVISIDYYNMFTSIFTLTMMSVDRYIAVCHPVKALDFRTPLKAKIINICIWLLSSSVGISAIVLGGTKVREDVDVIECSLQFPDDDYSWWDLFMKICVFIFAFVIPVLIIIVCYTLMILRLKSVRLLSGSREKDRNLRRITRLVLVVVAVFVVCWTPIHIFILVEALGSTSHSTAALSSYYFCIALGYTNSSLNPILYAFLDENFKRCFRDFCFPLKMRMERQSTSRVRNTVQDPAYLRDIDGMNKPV
Procedure: (§1) The CP series compounds were assayed as follows: The assay was performed using a 96 well ½ area plate. The different cAMP standard solutions (3 μL/well) were plated in duplicate. The different concentrations of drug (3 μL/well), and control solutions (3 μL/well) were plated in triplicate. Following this, the acceptor bead mixture (3 μL/well) was added to the respective sets—either cAMP standard curve or the treatment. This was covered and incubated on the orbital shaker for 60 minutes at 37° C. Then, the donor bead mixture (10 μL/well) was added to each well. This was incubated at room temperature overnight on the orbital shaker.
(§2) For DP-11-06 the assay was carried out in the same way as for the CP compounds except it was incubated for 30 mins at 37° C.
(§3) For the CP series compounds and DP-11-06, the Ensight® Multimode Plate Reader was used to quantify the fluorescence units of each plate. Before reading, each plate was centrifuged at 280 g for 30 seconds. Using GraphPad Prism7® Software, cAMP concentrations were determined by fit spline/LOWESS analysis. The cAMP standard curve was used for interpolation at this point. The cAMP concentrations were then normalized to the highest cAMP concentration recorded and analyzed by one-way ANOVA for multiple comparisons. The IC50 for each compound was then calculated using GraphPad Prism7® with non-linear regression analysis using four parameter curve fitting.
(§4) The results shown in Table 10 utilized rat plasma. • Note that DP-7-11 and CP5 represent the same compound, and DP-7-12 and CP6 are the same compound. In this regard, a different regression analysis method was adopted on the above cAMP experiments. Particularly, a new non-linear regression (four-parameter) was adopted to better account for hill slope, thereby improving the regression fit.

[3] = target: MOP (Homo sapiens, UniProt P35372); assay: In vitro cAMP activity at MOP (Table 10); type: cell-based; settings: cAMP inhibition, four-parameter regression
Sequence of MOP (P35372 whole entry): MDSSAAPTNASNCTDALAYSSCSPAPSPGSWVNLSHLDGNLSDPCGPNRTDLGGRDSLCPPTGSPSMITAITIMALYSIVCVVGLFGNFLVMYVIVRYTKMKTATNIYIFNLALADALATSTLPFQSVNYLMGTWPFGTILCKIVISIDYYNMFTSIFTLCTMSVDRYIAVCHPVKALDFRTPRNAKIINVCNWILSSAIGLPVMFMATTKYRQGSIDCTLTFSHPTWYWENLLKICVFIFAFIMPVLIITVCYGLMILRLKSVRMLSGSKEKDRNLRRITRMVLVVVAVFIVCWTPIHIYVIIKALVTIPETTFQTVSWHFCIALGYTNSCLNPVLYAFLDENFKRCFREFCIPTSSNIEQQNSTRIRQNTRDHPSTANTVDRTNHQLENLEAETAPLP
Procedure: as §1, §2, §3
(§5) In this regard, a different regression analysis method was adopted on the above cAMP experiments. Particularly, a new non-linear regression (four-parameter) was adopted to better account for hill slope, thereby improving the regression fit.

[4] = target: T1, bovine pancreatic trypsin (Bos taurus, UniProt P00760); assay: Trypsin stability assay (Table 10); type: in vitro ADME; settings: for half-life at 100 uM: bovine pancreatic trypsin solution; for half-life at 100 uM / half-life: bovine pancreatic trypsin 2.5 μg/mL, 37° C., One Phase Decay, read-out: Stability (t1/2, mins) Trypsin; for Degradation in trypsin: over the 120 minute assay
T1 construct: from tissue; host or cells: bovine pancreas
T1 sequence (P00760 24-246): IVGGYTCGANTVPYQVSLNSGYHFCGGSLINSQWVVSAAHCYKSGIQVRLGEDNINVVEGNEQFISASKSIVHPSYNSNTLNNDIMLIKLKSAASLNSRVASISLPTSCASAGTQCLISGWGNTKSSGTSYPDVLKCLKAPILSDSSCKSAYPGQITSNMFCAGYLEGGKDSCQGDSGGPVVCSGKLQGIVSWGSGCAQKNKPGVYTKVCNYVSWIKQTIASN
Excerpt: (§6) FIG. 20 is a series of graphs showing the stability of selected peptides in a trypsin (left-hand graphs) and plasma (right-hand graphs) stability assay (data normalised to concentration of each peptide at t=0, determined by LCMS, within each substrate; data analysed using One Phase Decay nonlinear regression in Prism software and each experiment performed in triplicate; mean+/−SEM);
Plasma was collected in house from adult mixed-gender Wistar rats, prepared using 2% EDTA as per standard practice. Peptides were added to rat plasma samples at 37° C. (in a water bath) with final concentrations of 100 uM (1:9 peptide in water:plasma) and a 50 μL sample was immediately taken and precipitated in 150 μL cold acetonitrile (9:1 ACN:water). This sample became the baseline, or t=0 min sample. […] At each time point, the 50 μL of plasma collected was immediately added to cold ACN. Each collected plasma sample in ACN was directly vortexed for 30 seconds and then centrifuged at room temperature (13K rpm, 5 min). 150 μL of the supernatant was taken and directly placed in glass HPLC vials for LCMS analysis.
The protocol for the trypsin stability assay was very similar to the plasma stability assay discussed above. The only difference was the use of a trypsin solution (bovine pancreatic trypsin 2.5 μg/mL in NH4HCO3 buffer, pH approx. 8-8.5, 37° C.) instead of rat plasma. Volumes, times and preparation protocols were exactly as mentioned above.

[5] = Plasma stability assay (Table 10); type: in vitro ADME; settings: 37° C., 100 uM peptide, One Phase Decay, read-out: Stability (t1/2, mins) Plasma; for half-life at 100 uM: both sexes, Wistar, rat plasma (EDTA); for half-life: rat plasma
Excerpt: as §6, §4
Plasma was collected in house from adult mixed-gender Wistar rats, prepared using 2% EDTA as per standard practice. Peptides were added to rat plasma samples at 37° C. (in a water bath) with final concentrations of 100 uM (1:9 peptide in water:plasma) and a 50 μL sample was immediately taken and precipitated in 150 μL cold acetonitrile (9:1 ACN:water). This sample became the baseline, or t=0 min sample. Plasma with peptide was immediately returned to the water bath and subsequent 50 μL samples were taken at 5, 10, 15, 30, 60 and 120 min. At each time point, the 50 μL of plasma collected was immediately added to cold ACN. Each collected plasma sample in ACN was directly vortexed for 30 seconds and then centrifuged at room temperature (13K rpm, 5 min). 150 μL of the supernatant was taken and directly placed in glass HPLC vials for LCMS analysis.

[6] = Stability in cAMP buffer; type: physicochemical; settings: over 60 minutes
Excerpt: Select compounds were also screened for stability in cAMP buffer, to assess whether they degrade spontaneously in the cell assay environment, in the absence of cellular metabolic processes.

[7] = tested on: bovine pancreatic trypsin; assay: bovine pancreatic trypsin 2.5 μg/mL in NH4HCO3 buffer, pH approx. 8-8.5; settings: 37° C., up to 120 min
[8] = target: DOP (Homo sapiens, UniProt P41143); assay: In vitro cAMP activity at DOP (Table 10); type: cell-based; settings: cAMP inhibition, four-parameter regression
Sequence of DOP (P41143 whole entry): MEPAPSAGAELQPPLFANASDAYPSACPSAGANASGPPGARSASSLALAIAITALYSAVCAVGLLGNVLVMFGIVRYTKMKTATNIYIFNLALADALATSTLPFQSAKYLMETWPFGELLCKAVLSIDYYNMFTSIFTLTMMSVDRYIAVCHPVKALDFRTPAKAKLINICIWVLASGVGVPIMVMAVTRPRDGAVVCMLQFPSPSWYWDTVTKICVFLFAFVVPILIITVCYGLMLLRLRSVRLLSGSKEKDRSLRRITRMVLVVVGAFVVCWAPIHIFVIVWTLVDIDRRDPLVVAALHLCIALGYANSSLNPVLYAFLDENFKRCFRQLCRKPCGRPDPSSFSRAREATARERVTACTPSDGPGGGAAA
Procedure: as §1, §2, §3, §5

**Q.** With “c(Tyr-Gly-Gly-Phe-D(Asp)-Arg-SSa-Ile-Arg-Pro-Lys)” as the molecule, how does the not cleaved [1] read?
**A.** Stable up to 6 h; more than 90% remained after 360 minutes

**Q.** With `CC(C)C[C@H](NC(=O)[C@H](Cc1ccc([N+](=O)[O-])cc1)NC(=O)CN(C)C(=O)[C@@H](N)Cc1ccc(O)cc1)C(=O)N[C@@H](CCCNC(=N)N)C(=O)N(C)[C@@H](CCCNC(=N)N)C(=O)N[C@@H]1CC(=O)NCC(C)(C)SSC[C@H](C(=O)N[C@H](CCCCN)C(N)=O)NC(=O)[C@@H](CCCNC(=N)N)NC1=O` [CP14, c(Tyr-Sar-(p-NO2-Phe)-Leu-Arg-NMA-D(Asp)-D(Arg)-SSa-D(Lys))] (H-Y[Sar][Phe(4-NO2)]LR[NMeR][dD][dR][dC][dK]-NH2; linker 7-9 via NHCH2CMe2S) as the molecule, how does the EC50 [2] read?
**A.** 4.4 nM

**Q.** And the EC50 [3]?
**A.** > 10000 nM

**Q.** And the half-life at 100 uM [4]?
**A.** 2320 min

**Q.** What about the Degradation in trypsin [4] of the same molecule?
**A.** no sign of degradation

**Q.** What about the half-life at 100 uM [5] of the same molecule?
**A.** 70.8 min

**Q.** And the “Degradation in cAMP assay buffer” value [6]?
**A.** no degradation

**Q.** With `CC(C)C[C@H](NC(=O)[C@H](Cc1ccc([N+](=O)[O-])cc1)NC(=O)CN(C)C(=O)[C@@H](N)Cc1ccc(O)cc1)C(=O)N[C@@H](CCCNC(=N)N)C(=O)N[C@H](CCCNC(=N)N)C(=O)N[C@@H]1CSSC(C)(C)CNC(=O)C[C@H](C(=O)N[C@@H](CCCCN)C(N)=O)NC(=O)[C@H](CCCNC(=N)N)NC1=O` [CP13, c(Tyr-Sar(p-NO2-Phe)-Leu-Arg-D(Arg)-SSa-Arg-D(Asp)-Lys] (H-Y[Sar][Phe(4-NO2)]LR[dR][dC]R[dD]K-NH2; linker 7-9 via X1) as the molecule, how does the EC50 [2] read?
**A.** 16 nM

**Q.** What about the EC50 [3] of the same molecule?
**A.** > 10000 nM

**Q.** And the half-life at 100 uM [4]?
**A.** 1410 min

**Q.** And the Degradation in trypsin [4]?
**A.** no sign of degradation

**Q.** What about the half-life at 100 uM [5] of the same molecule?
**A.** 63.3 min

**Q.** What about the “Degradation in cAMP assay buffer” value [6] of the same molecule?
**A.** no degradation

**Q.** Which not cleaved [7] does the source give for “c(Tyr-Sar-(p-NO2-Phe)-Leu-Arg-NMA-D(Asp)-D(Arg)-SSa-D(Lys))” here?
**A.** no sign of degradation over the 120 minute assay

**Q.** Which fragment found [1] does the source give for Tyr-Gly-Gly-Phe-Leu-Arg-Arg here?
**A.** DYN A (1-6), 15 min

**Q.** Which EC50 [2] does the source give for `CC1(C)CNC(=O)C[C@H](NC(=O)[C@@H](N)Cc2ccc(O)cc2)C(=O)NCC(=O)N[C@@H](Cc2ccccc2)C(=O)NC(C(=O)N[C@@H](CCCNC(=N)N)C(=O)N[C@@H](CCCNC(=N)N)C(N)=O)CSS1` (stereo partly drawn) [CP2, c(Tyr-Asp-Gly-Phe-SSa-Arg-Arg)] (H-YDGF[ξC]RR-NH2; linker 2-5 via NHCH2CMe2S; N-terminus assumed) here?
**A.** 320 nM

**Q.** And the EC50 [3]?
**A.** 2330 nM

**Q.** What about the EC50 [8] of the same molecule?
**A.** 1380 nM

**Q.** And the half-life [4]?
**A.** < 0.01 min

**Q.** And the half-life [5]?
**A.** < 0.01 min

**Q.** For `CC(C)C[C@H](NC(=O)[C@H](Cc1ccc(Cl)cc1)NC(=O)CN(C)C(=O)[C@@H](N)Cc1ccc(O)cc1)C(=O)N[C@@H](CCCNC(=N)N)C(=O)N[C@H](CCCNC(=N)N)C(=O)N[C@H]1CSSC(C)(C)CNC(=O)C[C@@H](C(N)=O)NC1=O` [CP9, c(Tyr-Sar-(p-Cl-Phe)-Leu-Arg-D(Arg)-SSa-Asp)] (H-Y[Sar][Phe(4-Cl)]LR[dR]CD-NH2; linker 7-8 via X1), which EC50 [2] is on record?
**A.** 1.8 nM

**Q.** What about the EC50 [3] of the same molecule?
**A.** > 10000 nM

**Q.** What about the EC50 [8] of the same molecule?
**A.** > 10000 nM

**Q.** What about the half-life [4] of the same molecule?
**A.** 49.8 min

**Q.** What about the half-life [5] of the same molecule?
**A.** 85.5 min

**Q.** And the “Degradation in cAMP assay buffer” value [6]?
**A.** no degradation

**Q.** For “c(Tyr-Sar(p-NO2-Phe)-Leu-Arg-D(Arg)-SSa-Arg-D(Asp)-Lys”, which not cleaved [7] is on record?
**A.** no sign of degradation over the 120 minute assay

**Q.** What does the source list for “Tyr-Gly-Gly-Phe-Leu-Arg-Arg-Ile-Arg-Pro-Lys”?
**A.** fragment found [1]: DYN A (1-7), first_seen, initial time point samples; also recorded: DYN A (1-6), first_seen, initial time point samples; not cleaved [1]: DYN 1-9 was not observed upon trypsin digestion
